The text below walks through data of ChEMBL document CHEMBL1150413, “A series of potent and selective, triazolylphenyl-based histone deacetylases inhibitors with activity against pancreatic cancer cells and Plasmodium falciparum” (J Med Chem, 2008).

Targets include Histone deacetylase 1 (Homo sapiens, UniProt Q13547); Histone deacetylase 2 (Homo sapiens, UniProt Q92769); Histone deacetylase 3 (Homo sapiens, UniProt O15379).
For experiment [1], the target named is T1, Protein deacetylase HDAC6 (Homo sapiens, UniProt Q9UBN7).
T1 sequence (Q9UBN7 whole entry): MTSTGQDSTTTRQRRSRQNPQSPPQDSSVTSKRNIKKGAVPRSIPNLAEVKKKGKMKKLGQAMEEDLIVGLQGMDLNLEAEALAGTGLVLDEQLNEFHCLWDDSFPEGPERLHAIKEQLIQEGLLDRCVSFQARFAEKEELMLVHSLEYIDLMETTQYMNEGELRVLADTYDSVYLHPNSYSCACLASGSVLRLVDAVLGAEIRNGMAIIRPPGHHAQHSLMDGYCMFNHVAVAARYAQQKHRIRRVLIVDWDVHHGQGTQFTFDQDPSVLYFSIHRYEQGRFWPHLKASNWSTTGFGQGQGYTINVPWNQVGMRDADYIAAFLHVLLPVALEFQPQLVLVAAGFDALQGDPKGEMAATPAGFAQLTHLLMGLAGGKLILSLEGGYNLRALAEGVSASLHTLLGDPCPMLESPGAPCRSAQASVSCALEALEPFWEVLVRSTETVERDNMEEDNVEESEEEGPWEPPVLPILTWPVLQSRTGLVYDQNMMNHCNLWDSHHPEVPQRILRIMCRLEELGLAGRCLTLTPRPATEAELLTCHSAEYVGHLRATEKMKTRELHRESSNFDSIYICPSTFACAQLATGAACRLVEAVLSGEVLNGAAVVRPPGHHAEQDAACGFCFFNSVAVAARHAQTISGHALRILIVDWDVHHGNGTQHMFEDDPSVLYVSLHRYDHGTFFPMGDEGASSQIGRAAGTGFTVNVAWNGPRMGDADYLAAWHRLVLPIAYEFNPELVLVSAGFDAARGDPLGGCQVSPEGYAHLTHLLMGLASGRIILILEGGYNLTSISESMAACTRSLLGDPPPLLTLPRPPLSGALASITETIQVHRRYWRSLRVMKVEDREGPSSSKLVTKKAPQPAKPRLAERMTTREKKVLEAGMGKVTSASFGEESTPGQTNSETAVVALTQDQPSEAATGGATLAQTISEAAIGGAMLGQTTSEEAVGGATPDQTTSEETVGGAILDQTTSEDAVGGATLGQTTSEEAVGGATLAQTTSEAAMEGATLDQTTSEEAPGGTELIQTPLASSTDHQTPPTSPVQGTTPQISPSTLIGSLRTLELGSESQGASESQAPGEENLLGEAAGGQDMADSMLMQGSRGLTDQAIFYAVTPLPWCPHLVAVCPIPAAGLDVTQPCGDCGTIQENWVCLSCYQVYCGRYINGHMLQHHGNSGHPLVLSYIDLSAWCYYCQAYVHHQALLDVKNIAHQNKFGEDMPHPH

A short description of experiment [2]: Cytotoxicity against human Panc 04.03 cells after 72 hrs by MTT assay. Format: functional, cell-based. The settings on record: Panc 04.03, 72 h. A general note: Tetrazolium assays rely on reduction of a dye to a coloured formazan, in cell work by metabolically active cells.
Experiment [3] relates to Plasmodium falciparum. Description: microbe, parasite or virus in culture. The following applies: TM91C235.
Description: Antimalarial activity against Plasmodium falciparum TM91C235 by hypoxanthine uptake
The target in another experiment is T2, Histone deacetylase 8 (Homo sapiens, UniProt Q9BY41).
T2 sequence (Q9BY41 whole entry): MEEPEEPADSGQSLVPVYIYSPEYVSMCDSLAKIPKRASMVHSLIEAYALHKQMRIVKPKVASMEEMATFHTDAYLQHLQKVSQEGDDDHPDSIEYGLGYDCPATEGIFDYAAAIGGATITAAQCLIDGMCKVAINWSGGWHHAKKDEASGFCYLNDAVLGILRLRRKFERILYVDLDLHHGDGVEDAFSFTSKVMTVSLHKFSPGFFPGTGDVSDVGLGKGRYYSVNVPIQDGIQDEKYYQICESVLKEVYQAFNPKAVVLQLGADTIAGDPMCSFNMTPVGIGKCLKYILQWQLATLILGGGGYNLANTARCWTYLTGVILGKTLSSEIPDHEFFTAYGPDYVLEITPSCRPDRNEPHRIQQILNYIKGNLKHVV

Experiment [4] deals with Plasmodium falciparum. Description: Antimalarial activity against Plasmodium falciparum TM90C2A by hypoxanthine uptake. The format is functional, organism-based.
Experiment [5] deals with Plasmodium falciparum. Description: Antimalarial activity against Plasmodium falciparum D6 by hypoxanthine uptake. The format is functional, organism-based.
The nature of experiment [6]: Cytotoxicity against human HPDE6c7 cells. Format: ADME, cell-based.
Experiment [7] concerns Plasmodium falciparum. Description: Antimalarial activity against Plasmodium falciparum W2 by hypoxanthine uptake. Format: functional, organism-based.
Experiment [8] concerns the target T3, Polyamine deacetylase HDAC10 (Homo sapiens, UniProt Q969S8).
T3 sequence (Q969S8 whole entry): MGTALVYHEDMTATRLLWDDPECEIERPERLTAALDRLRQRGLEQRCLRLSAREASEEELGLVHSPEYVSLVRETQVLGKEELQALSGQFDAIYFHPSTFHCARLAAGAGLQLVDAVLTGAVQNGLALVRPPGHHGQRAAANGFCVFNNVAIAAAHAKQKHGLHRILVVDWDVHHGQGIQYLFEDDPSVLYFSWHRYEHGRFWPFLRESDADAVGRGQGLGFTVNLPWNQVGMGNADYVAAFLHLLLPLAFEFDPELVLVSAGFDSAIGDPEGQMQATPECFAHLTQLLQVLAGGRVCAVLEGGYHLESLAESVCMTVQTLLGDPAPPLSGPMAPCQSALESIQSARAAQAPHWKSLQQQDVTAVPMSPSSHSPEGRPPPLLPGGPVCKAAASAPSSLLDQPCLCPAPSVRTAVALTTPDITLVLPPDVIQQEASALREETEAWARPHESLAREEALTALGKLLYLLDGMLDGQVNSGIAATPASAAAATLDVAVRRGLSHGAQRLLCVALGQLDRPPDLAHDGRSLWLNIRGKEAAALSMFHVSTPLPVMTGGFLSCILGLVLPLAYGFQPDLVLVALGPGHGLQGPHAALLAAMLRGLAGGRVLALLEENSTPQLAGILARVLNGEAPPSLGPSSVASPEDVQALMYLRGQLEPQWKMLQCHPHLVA

Experiment [9] in a line: Cytotoxicity against nontransformed human microvascular epithelial cells. Format: ADME, cell-based. The following applies: Endothelial cell.
Experiment [10] can be described thus: Selectivity for HDAC10 over HDAC1.
The test system of the next experiment is BXPC-3. Description: Cytotoxicity against human BxPC3 cells after 72 hrs by MTT assay. Format: functional, cell-based. The settings on record: BXPC-3, 72 h.
The nature of experiment [11]: Cytotoxicity against human Hup T3 cells after 72 hrs by MTT assay. The format is functional, cell-based. The settings on record: HuP-T3, 72 h.
Another experiment relates to MIA PaCa-2. In words: Cytotoxicity against human Mia Paca2 cells after 72 hrs by MTT assay. The format is functional, cell-based. The settings on record: MIA PaCa-2, 72 h.
Experiment [12] in a line: Cytotoxicity against human SU 86.86 cells after 72 hrs by MTT assay. The format is functional, cell-based. The settings on record: SU.86.86, 72 h.

pIC50: −log10 of the molar value. A value given as a limit tells only on which side of the number the result lay.

Chain of Histone deacetylase 2 (Q92769 whole entry): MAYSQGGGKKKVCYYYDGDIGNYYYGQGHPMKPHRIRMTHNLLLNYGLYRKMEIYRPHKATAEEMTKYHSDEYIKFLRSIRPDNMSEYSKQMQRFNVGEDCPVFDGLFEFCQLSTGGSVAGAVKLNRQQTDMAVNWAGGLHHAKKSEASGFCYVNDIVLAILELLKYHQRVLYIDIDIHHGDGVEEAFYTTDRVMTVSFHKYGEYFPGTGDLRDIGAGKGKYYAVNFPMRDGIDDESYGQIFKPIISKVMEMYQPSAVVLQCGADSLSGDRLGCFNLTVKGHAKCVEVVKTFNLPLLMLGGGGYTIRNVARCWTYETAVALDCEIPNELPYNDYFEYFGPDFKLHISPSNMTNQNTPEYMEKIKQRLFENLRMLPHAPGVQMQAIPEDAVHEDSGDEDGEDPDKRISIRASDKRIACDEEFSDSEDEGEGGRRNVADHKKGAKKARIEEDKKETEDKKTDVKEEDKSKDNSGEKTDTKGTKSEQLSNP
Chain of Histone deacetylase 3 (O15379 whole entry): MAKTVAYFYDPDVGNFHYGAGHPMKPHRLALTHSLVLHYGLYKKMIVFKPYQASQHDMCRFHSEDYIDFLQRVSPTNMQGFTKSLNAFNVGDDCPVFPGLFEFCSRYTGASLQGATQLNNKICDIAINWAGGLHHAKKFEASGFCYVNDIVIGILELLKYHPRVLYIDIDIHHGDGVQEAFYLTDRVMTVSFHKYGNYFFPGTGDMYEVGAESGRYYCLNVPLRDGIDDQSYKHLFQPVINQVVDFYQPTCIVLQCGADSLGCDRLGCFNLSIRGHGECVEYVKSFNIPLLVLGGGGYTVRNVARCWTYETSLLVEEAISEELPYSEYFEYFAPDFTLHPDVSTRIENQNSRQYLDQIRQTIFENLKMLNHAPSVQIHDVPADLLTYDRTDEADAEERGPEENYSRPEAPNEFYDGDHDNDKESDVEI
Chain of Histone deacetylase 1 (Q13547 whole entry): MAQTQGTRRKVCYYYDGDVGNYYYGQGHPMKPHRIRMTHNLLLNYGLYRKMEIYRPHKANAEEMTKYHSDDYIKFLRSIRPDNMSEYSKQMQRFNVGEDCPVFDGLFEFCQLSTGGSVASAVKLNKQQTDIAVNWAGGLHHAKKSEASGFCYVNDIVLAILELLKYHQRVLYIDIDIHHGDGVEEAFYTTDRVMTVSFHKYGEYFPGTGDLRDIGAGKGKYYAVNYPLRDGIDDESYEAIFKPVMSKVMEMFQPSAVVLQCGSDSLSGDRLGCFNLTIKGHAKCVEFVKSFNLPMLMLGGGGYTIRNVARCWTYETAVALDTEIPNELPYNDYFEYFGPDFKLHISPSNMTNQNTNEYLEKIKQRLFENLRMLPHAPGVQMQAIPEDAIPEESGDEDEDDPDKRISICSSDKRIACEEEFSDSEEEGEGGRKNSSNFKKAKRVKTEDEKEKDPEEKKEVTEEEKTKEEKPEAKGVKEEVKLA

A word on the pIC50: it is the negative decadic logarithm of the IC50, by convention in mol/L. In the case of `O=C(CCCCCCC(=O)Nc1cccc(-c2cn(-c3ccccc3)nn2)c1)NO`, the pIC50 was 8.02 in experiment [1]; more than 6.30 in experiment [2]; 7.74 against Histone deacetylase 1; 7.46 in the experiment with Plasmodium falciparum [3]; 5.56 at Histone deacetylase 8; 7.77 in the experiment on Plasmodium falciparum [4]. The pIC50 with Plasmodium falciparum [5] was 7.77; in [6], more than 6.70; in the experiment on Plasmodium falciparum [7] it was 7.49; against Histone deacetylase 2, 7.19; in [8] it was 7.56; in experiment [9], more than 6.00.
Take `O=C(CCCCCCC(=O)Nc1cccc(-c2cn(Cc3ccc(F)cc3)nn2)c1)NO`: the pIC50 in [1] was 8.59; in [2], 6.00; against Histone deacetylase 1, 7.75; in the experiment on Plasmodium falciparum [3] it was 6.55; against Histone deacetylase 8, 6.26; with Plasmodium falciparum [4], 6.96. Further, the pIC50 in the experiment on Plasmodium falciparum [5] was 6.74; in [6], 6.30; in the experiment with BXPC-3, 6.00; with Plasmodium falciparum [7], 6.46; against Histone deacetylase 3 it was 8.40; against Histone deacetylase 2 it was 7.11. Besides, the pIC50 in experiment [8] was 7.46; in [11], 6.00; with MIA PaCa-2 it was 6.52; in experiment [12] it was 6.00; in experiment [9], more than 6.00. Further, the Ratio IC50 in experiment [10] stood at 0.5.
For `O=C(CCCCCCC(=O)Nc1ccc(-c2cn(-c3ccccc3)nn2)cc1)NO`, the pIC50 in experiment [1] is 8.89; in [2], 6.00; on Histone deacetylase 1 it was 7.57; on Histone deacetylase 8 it was 5.71; in experiment [6], 6.00; in the experiment on BXPC-3, 5.52. Further, the pIC50 was 8.10 against Histone deacetylase 3; 7.32 against Histone deacetylase 2; 7.44 in experiment [8]; 6.00 in experiment [11]; 6.40 with MIA PaCa-2; 6.00 in experiment [12]. The negative logarithm of the IC50 (pIC50) in experiment [9] is 6.00. Besides, the Ratio IC50 in experiment [10] came to 0.8.
As to `O=C(CCCCCCC(=O)Nc1ccc(-c2cnnn2Cc2ccccc2)cc1)NO`, the pIC50 is 8.51 in [1]; 5.70 in [2]; 7.17 against Histone deacetylase 1; 6.28 in the experiment with Plasmodium falciparum [3]; 6.10 against Histone deacetylase 8; 6.52 with Plasmodium falciparum [4]. The pIC50 in the experiment with Plasmodium falciparum [5] was 6.40; with BXPC-3 it was 4.96; in the experiment on Plasmodium falciparum [7] it was less than 5.92; on Histone deacetylase 3 it was 8.01; on Histone deacetylase 2 it was 6.91; in experiment [8], 7.15. In addition, the pIC50 in experiment [11] is 5.30; in the experiment on MIA PaCa-2, 5.70; in experiment [12], 5.05. Moreover, the Ratio IC50 in [10] came out at 1.
In the case of `O=C(CCCCCCC(=O)Nc1cccc(-c2cn(CC(O)c3cccc(Br)c3)nn2)c1)NO` (centres undefined), the negative-log IC50 (pIC50) in [1] was 8.72; in [2], 4.85; on Histone deacetylase 1 it was 7.83; in the experiment with Plasmodium falciparum [3], 6.59; at Histone deacetylase 8, 6.36; in the experiment on Plasmodium falciparum [4] it was 6.96. Further, the pIC50 in the experiment with Plasmodium falciparum [5] is 6.96; in the experiment with BXPC-3 it was 4.96; in the experiment with Plasmodium falciparum [7], 6.25; on Histone deacetylase 3 it was 8.57; against Histone deacetylase 2, 7.19; in [8], 7.89. Further, the pIC50 in experiment [11] is 4.96; with MIA PaCa-2, 6.10; in [12], 4.92. For the same molecule, in experiment [10], the Ratio IC50 turned out to be 1.1.
As for `O=C(CCCCCCC(=O)Nc1cccc(-c2cnnn2Cc2ccc(F)cc2)c1)NO`, the pIC50 was 8.42 in experiment [1]; 5.05 in [2]; 7.59 against Histone deacetylase 1; 6.34 in the experiment on Plasmodium falciparum [3]; 6.28 at Histone deacetylase 8; 6.68 with Plasmodium falciparum [4]. The negative-log IC50 (pIC50) in the experiment with Plasmodium falciparum [5] was 6.52; in the experiment on BXPC-3 it was 4.96; in the experiment on Plasmodium falciparum [7], 6.23; on Histone deacetylase 3, 8.24; on Histone deacetylase 2 it was 6.91; in [8] it was 7.75. In addition, the negative-log IC50 (pIC50) is 5.30 in experiment [11], 5.70 in the experiment on MIA PaCa-2 and 5.10 in experiment [12]. Further, the Ratio IC50 in experiment [10] stood at 1.5.
For `O=C(CCCCCCC(=O)Nc1ccc(-c2cnnn2Cc2ccc(F)cc2)cc1)NO`, the pIC50 in experiment [1] was 8.14; in [2] it was 5.70; at Histone deacetylase 1 it was 7.28; in the experiment on Plasmodium falciparum [3], 6.54; against Histone deacetylase 8, 5.70; in the experiment with Plasmodium falciparum [4], 6.92. Further, the negative-log IC50 (pIC50) in the experiment with Plasmodium falciparum [5] is 6.62; in the experiment on BXPC-3, 4.96; with Plasmodium falciparum [7], 6.34; at Histone deacetylase 3 it was 7.79; at Histone deacetylase 2, 7.24; in experiment [8], 7.19. The figures for the pIC50 (in experiment [11]; with MIA PaCa-2; in [12]) were 5.40, 5.10 and 5.00, respectively. In experiment [10], the Ratio IC50 came out at 0.8.
`O=C(CCCCCCC(=O)Nc1ccc(-c2cnnn2-c2ccccc2)cc1)NO`: the pIC50 is 8.46 in experiment [1]; 5.10 in [2]; 7.15 against Histone deacetylase 1; 6.33 in the experiment with Plasmodium falciparum [3]; 6.29 against Histone deacetylase 8; 6.77 with Plasmodium falciparum [4]. The pIC50 in the experiment on Plasmodium falciparum [5] was 6.46; with BXPC-3, 4.89; in the experiment on Plasmodium falciparum [7], 6.21; against Histone deacetylase 3, 7.92; on Histone deacetylase 2, 6.84; in [8], 7.25. Moreover, the negative logarithm of the IC50 (pIC50) in experiment [11] was 5.00; in the experiment with MIA PaCa-2, 5.10; in experiment [12], 4.96. Also, the Ratio IC50 in experiment [10] amounted to 1.3.
